# How the values were obtained:
# MCF-7 cancer cell line = assay: Cell viability assay; assay type: cell-based; details: Homo sapiens, MCF7, 24 h, read-out: IC50 (cytotoxicity, SRB assay)
# MCF-7 cell migration = assay: Cell migration; assay type: cell-based, human; details: for migration area at 24 hours: MCF-7, treated with IC50, 24 hours, negative control 44.02%
# [1] = tested on: normal human diploid fibroblasts; details: cited from earlier work
# MCF-7 colony formation = assay: Cell proliferation; assay type: cell-based, human; details: MCF-7, treated with IC50, 5 days; negative control 100%
smiles,measurement,setting,value
"C[C@@H]1O[C@@H](O[C@@H]2[C@@H](O)[C@H](OCCc3ccc(O)c(O)c3)O[C@H](CO)[C@H]2OC(=O)/C=C/c2ccc(O)c(O)c2)[C@H](O)[C@H](O)[C@H]1O [ACT, Acteoside]",IC50,MCF-7 cancer cell line,135 µg/mL
same,migration area at 24 hours,MCF-7 cell migration,14.38%
same,toxic effects on normal human diploid fibroblasts,[1],no toxic effects
same,colony formation relative to the negative control,MCF-7 colony formation,39.7%
"C[C@H]1c2cccc(O)c2C(=O)C2=C(O)[C@]3(O)C(=O)C(C(N)=O)=C(O)[C@@H](N(C)C)[C@@H]3[C@@H](O)[C@@H]21 [DOX, doxycycline]",IC50,MCF-7 cancer cell line,343 µg/mL
same,migration area at 24 hours,MCF-7 cell migration,6.8%
same,migration area at 48 hours,"MCF-7 cell migration; MCF-7, treated with IC50, 48 hours, negative control 53.99%",-16.50%
same,colony formation relative to the negative control,MCF-7 colony formation,35.56%
